# Source: patent publication US8481544B2, “Antibacterial compositions” (Biota Europe Limited, priority 2006, dated 2013)
# Key:
# [1] = test system: Enterococcus faecalis ATCC 29212; assay: MIC against Enterococcus faecalis ATCC 29212; format: cell-based; conditions: ATCC29212; Enterococcus faecalis ATCC 29212; read-out: MICs against Enterococcus faecalis, Activity
# Procedure, shortened: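 MIC measured by broth microdilution or agar dilution following CLSI guidelines (M7-A7 for aerobes, M11-A6 for anaerobes).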
# Staphylococcus aureus = assay: mouse Staphylococcus aureus septicaemia model of infection, survival at day 7; format: in vivo
# Procedure: Some of the Example compounds were also tested for activity in a mouse Staphylococcus aureus septicaemia model of infection.
# [2] = test system: Bacteroides fragilis ATCC 25285; assay: MIC against Bacteroides fragilis ATCC 25285; format: cell-based; conditions: ATCC25285, Isolate ID ATCC 25285
# [3] = test system: Chlamydia trachomatis T71214; assay: MIC against Chlamydia trachomatis T71214; format: cell-based; conditions: Isolate ID T71214
# [4] = test system: Chlamydophila pneumoniae IOL207; assay: MIC against Chlamydophila pneumoniae IOL207; format: cell-based; conditions: Chlamydia pneumoniae; Isolate ID IOL207
# [5] = test system: Clostridium difficile NQS 84; assay: MIC against Clostridium difficile NQS 84; format: cell-based; conditions: Clostridioides difficile, NQS84; Isolate ID NQS 84
# Description: Institute. Methods for Dilution Antimicrobial Susceptibility Tests for Bacteria That Grow Aerobically; Approved Standard—Seventh Edition. Document M7-A7. CLSI, Wayne, Pa., 2006; Clinical Laboratories and Standards Institute. Methods for Antimicrobial Susceptibility Testing of Anaerobic Bacteria; Approved Standard—Sixth Edition. Document M11-A6. CLSI, Wayne, Pa., 2004).
# [6] = test system: Clostridium perfringens IV306001; assay: microbe, parasite or virus in culture; format: cell-based; conditions: IV306001, read-out: MIC (Activity) against Clostridium perfringens
# [7] = test system: Enterococcus faecalis (VRE) ATCC 51299; assay: MIC against Enterococcus faecalis (VRE) ATCC 51299; format: cell-based; conditions: Enterococcus faecalis; Isolate ID ATCC 51299; read-out: MIC (Activity) against Enterococcus faecalis (VRE)
# [8] = test system: Enterococcus faecium (VRE) ATCC 700221; assay: MIC against Enterococcus faecium (VRE) ATCC 700221; format: cell-based; conditions: Enterococcus faecium; Isolate ID ATCC 700221; read-out: MIC (Activity) against Enterococcus faecium (VRE)
# [9] = test system: Enterococcus faecium (VSE) ATCC 19434; assay: MIC against Enterococcus faecium (VSE) ATCC 19434; format: cell-based; conditions: Enterococcus faecium, ATCC19434; Isolate ID ATCC 19434; read-out: MIC (Activity) against Enterococcus faecium (VSE)
# Escherichia coli N43 = assay: MIC against Escherichia coli N43; format: cell-based; conditions: Isolate ID N43
# [10] = test system: Haemophilus influenzae ATCC 49247; assay: MIC against Haemophilus influenzae ATCC 49247; format: cell-based; conditions: ATCC49247, Isolate ID ATCC 49247
# [11] = test system: Helicobacter pylori DJF 11; assay: MIC against Helicobacter pylori DJF 11; format: cell-based; conditions: DJF11, Isolate ID DJF 11
# [12] = test system: Lactococcus lactis ATCC 11454; assay: MIC against Lactococcus lactis ATCC 11454; format: cell-based; conditions: ATCC11454, Isolate ID ATCC 11454
# [13] = test system: Legionella pneumophila LP NCTC 11192; assay: microbe, parasite or virus in culture; format: cell-based; conditions: NCTC11192, read-out: MIC (Activity) against Legionella pneumophila
# [14] = test system: Listeria monocytogenes ATCC 19115; assay: MIC against Listeria monocytogenes ATCC 19115; format: cell-based; conditions: ATCC19115, Isolate ID ATCC 19115
# [15] = test system: Moraxella catarrhalis ATCC 25240; assay: MIC against Moraxella catarrhalis ATCC 25240; format: cell-based; conditions: Moraxella catarrhalis, ATCC25240; Isolate ID ATCC 25240; read-out: MIC (Activity) against Moraxella catarrhalis
# [16] = test system: Mycoplasma hominis MH NCTC 10111; assay: MIC against Mycoplasma hominis MH NCTC 10111; format: cell-based; conditions: Metamycoplasma hominis, NCTC10111; Isolate ID MH NCTC 10111
# Mycoplasma hominis MH 10 = assay: MIC against Mycoplasma hominis MH 10; format: cell-based; conditions: Metamycoplasma hominis, MH10; Isolate ID MH 10
# [17] = test system: Mycoplasma pneumoniae MP 9; assay: MIC against Mycoplasma pneumoniae MP 9; format: cell-based; conditions: MP9, Isolate ID MP 9
# [18] = test system: Mycoplasma pneumoniae MP NCTC 10119; assay: MIC against Mycoplasma pneumoniae MP NCTC 10119; format: cell-based; conditions: NCTC10119, Isolate ID MP NCTC 10119
# [19] = test system: Neisseria gonorrhoeae NG ATCC 49226; assay: MIC against Neisseria gonorrhoeae NG ATCC 49226; format: cell-based; conditions: ATCC49226, Isolate ID NG ATCC 49226
# [20] = test system: Propionibacterium acnes ATCC 11821; assay: MIC against Propionibacterium acnes ATCC 11821; format: cell-based; conditions: Cutibacterium acnes, ATCC11821; Isolate ID ATCC 11821
# [21] = test system: Staphylococcus aureus ATCC 29213; assay: MIC against Staphylococcus aureus ATCC 29213; format: cell-based; conditions: Staphylococcus aureus, ATCC29213; Isolate ID ATCC 29213; read-out: MIC (Activity) against Staphylococcus aureus
# [22] = test system: Staphylococcus aureus VRS1; assay: MIC against Staphylococcus aureus VRS1; format: cell-based; conditions: Isolate ID VRS1
# [23] = test system: Staphylococcus aureus VRS2; assay: MIC against Staphylococcus aureus VRS2; format: cell-based; conditions: Isolate ID VRS2
# [24] = test system: Staphylococcus aureus VRS3; assay: MIC against Staphylococcus aureus VRS3; format: cell-based; conditions: Isolate ID VRS3
# [25] = test system: Staphylococcus epidermidis ATCC 12228; assay: MIC against Staphylococcus epidermidis ATCC 12228; format: cell-based; conditions: Staphylococcus epidermidis, ATCC12228; Isolate ID ATCC 12228; read-out: MIC (Activity) against Staphylococcus epidermidis
# [26] = test system: Staphylococcus haemolyticus ATCC 29970; assay: MIC against Staphylococcus haemolyticus ATCC 29970; format: cell-based; conditions: Staphylococcus haemolyticus, ATCC29970; Isolate ID ATCC 29970; read-out: MIC (Activity) against Staphylococcus haemolyticus
# [27] = test system: Streptococcus mutans ATCC 35668; assay: MIC against Streptococcus mutans ATCC 35668; format: cell-based; conditions: Streptococcus mutans, ATCC35668; Isolate ID ATCC 35668; read-out: MIC (Activity) against Streptococcus mutans
# [28] = test system: Streptococcus pneumoniae ATCC 700671; assay: MIC against Streptococcus pneumoniae ATCC 700671; format: cell-based; conditions: ATCC700671, Isolate ID ATCC 700671
# [29] = test system: Streptococcus pneumoniae SP 051430; assay: MIC against Streptococcus pneumoniae SP 051430; format: cell-based; conditions: SP051430, Isolate ID SP 051430
# [30] = test system: Streptococcus pneumoniae (FQR) SP 26054; assay: MIC against Streptococcus pneumoniae (FQR) SP 26054; format: cell-based; conditions: Isolate ID SP 26054
# [31] = test system: Streptococcus pneumoniae (FQR) SP 25058; assay: MIC against Streptococcus pneumoniae (FQR) SP 25058; format: cell-based; conditions: Isolate ID SP 25058
# [32] = test system: Streptococcus pneumoniae (MacR) SP 051431; assay: MIC against Streptococcus pneumoniae (MacR) SP 051431; format: cell-based; conditions: Isolate ID SP 051431
# [33] = test system: Streptococcus pyogenes ATCC 51339; assay: MIC against Streptococcus pyogenes ATCC 51339; format: cell-based; conditions: Streptococcus pyogenes, ATCC51339; Isolate ID ATCC 51339; read-out: MIC (Activity) against Streptococcus pyogenes
# [34] = 2 × 30 mg/kg intraperitoneal, 1 and 6 hours after inoculation
structure (smiles),measurement,setting,value
"CCNC(=O)Nc1nc2cc(-c3cccnc3)cc(-c3cccnc3)c2s1 [Example 4, 1-(5,7-Di-pyridin-3-yl-benzothiazol-2-yl)-3-ethyl-urea]",MIC,[1],0.25 to 1 µg/mL
same,Percent survival,"Staphylococcus aureus; 2 × 100 mg/kg intraperitoneal, 1 and 6 hours after inoculation",100
"CCOC(=O)Nc1nc2cc(-c3cccnc3)cc(-c3ccccn3)c2s1 [Example 174, (5-Pyridin-3-yl-7-pyridin-2-yl-benzothiazol-2-yl)-carbamic acid ethyl ester]",MIC,[1],< 0.25 µg/mL
same,melting point,,235 °C
"CCNC(=O)Nc1nc2cc(-c3cccnc3)cc(-c3ccc[nH]3)c2s1 [Example 90, 1-Ethyl-3-[5-pyridin-3-yl-7-(1H-pyrrol-2-yl)-benzothiazol-2-yl]-urea]",MIC,[1],0.25 to 1 µg/mL
same,melting point,,220 °C
"CCNC(=O)Nc1nc2cc(-c3cccnc3)cc(-c3ccc(C)cn3)c2s1 [Example 175, 1-Ethyl-3-[7-(5-methyl-pyridin-2-yl)-5-pyridin-3-yl-benzothiazol-2-yl]-urea]",MIC,[1],< 0.25 µg/mL
same,melting point,,231 °C
"CCNC(=O)Nc1nc2cc(-c3cccnc3)cc(-c3cccc(OC)n3)c2s1 [Example 167, 1-Ethyl-3-[7-(6-methoxy-pyridin-2-yl)-5-pyridin-3-yl-benzothiazol-2-yl]-urea]",MIC,[1],< 0.25 µg/mL
same,melting point,,300.1 °C
"CCNC(=O)Nc1nc2cc(-c3cccnc3)cc(-c3ccccn3)c2s1 [Example 163, 1-Ethyl-3-(5-pyridin-3-yl-7-pyridin-2-yl-benzothiazol-2-yl)-urea]",MIC,[1],< 0.25 µg/mL
same,Percent survival,"Staphylococcus aureus; 1 × 10 mg/kg intraperitoneal, 1 hour after inoculation",60
same,Percent survival,"Staphylococcus aureus; 1 × 30 mg/kg intraperitoneal, 1 hour after inoculation",100
same,Percent survival,Staphylococcus aureus; [34],100
same,MIC,[2],2 to 16 µg/mL
same,MIC,[3],0.25 to 1 µg/mL
same,MIC,[4],< 0.25 µg/mL
same,MIC,[5],0.25 to 1 µg/mL
same,MIC,[6],0.25 to 1 µg/mL
same,MIC,[7],< 0.25 µg/mL
same,MIC,[8],< 0.25 µg/mL
same,MIC,[9],0.25 to 1 µg/mL
same,MIC,Escherichia coli N43,2 to 16 µg/mL
same,MIC,[10],2 to 16 µg/mL
same,MIC,[11],< 0.25 µg/mL
same,MIC,[12],< 0.25 µg/mL
same,MIC,[13],0.25 to 1 µg/mL
same,MIC,[14],< 0.25 µg/mL
same,MIC,[15],< 0.25 µg/mL
same,MIC,[16],0.25 to 1 µg/mL
same,MIC,Mycoplasma hominis MH 10,0.25 to 1 µg/mL
same,MIC,[17],0.25 to 1 µg/mL
same,MIC,[18],0.25 to 1 µg/mL
same,MIC,[19],0.25 to 1 µg/mL
same,MIC,[20],< 0.25 µg/mL
same,MIC,[21],0.25 to 1 µg/mL
same,MIC,[22],< 0.25 µg/mL
same,MIC,[23],< 0.25 µg/mL
same,MIC,[24],< 0.25 µg/mL
same,MIC,[25],< 0.25 µg/mL
same,MIC,[26],< 0.25 µg/mL
same,MIC,[27],< 0.25 µg/mL
same,MIC,[28],< 0.25 µg/mL
same,MIC,[29],< 0.25 µg/mL
same,MIC,[30],< 0.25 µg/mL
same,MIC,[31],< 0.25 µg/mL
same,MIC,[32],< 0.25 µg/mL
same,MIC,[33],0.25 to 1 µg/mL
"CCNC(=O)Nc1nc2cc(-c3cccnc3)cc(-c3ncccc3F)c2s1 [Example 91, 1-Ethyl-3-[7-(3-fluoro-pyridin-2-yl)-5-pyridin-3-yl-benzothiazol-2-yl]-urea]",MIC,[1],< 0.25 µg/mL
same,Percent survival,Staphylococcus aureus; [34],100
"CCNC(=O)Nc1nc2cc(-c3cccnc3)cc(-c3cccc(Cl)n3)c2s1 [Example 88, 1-[7-(6-Chloro-pyridin-2-yl)-5-pyridin-3-yl-benzothiazol-2-yl]-3-ethyl-urea]",MIC,[1],< 0.25 µg/mL
same,melting point,,249.9 °C
"CCNC(=O)Nc1nc2cc(-c3cccnc3)cc(Br)c2s1 [Example 3, 1-(7-Bromo-5-pyridin-3-yl-benzothiazol-2-yl)-3-ethyl-urea]",MIC,[1],0.25 to 1 µg/mL
same,melting point,,345 °C
"CCNC(=O)Nc1nc2cc(-c3cccnc3)cc(-c3cccc(C(F)(F)F)n3)c2s1 [Example 89, 1-Ethyl-3-[5-pyridin-3-yl-7-(6-trifluoromethyl-pyridin-2-yl)-benzothiazol-2-yl]-urea]",MIC,[1],< 0.25 µg/mL
same,melting point,,256.7 °C
